The experiment deals with β-lactamase producing bacteria. Description: Test Example 1: MIC of meropenem (MEPM) combined with test compound at fixed 4 μg/mL, broth microdilution. The experiment is classed as cell-based. The settings on record: relative to MEPM alone. As for the experimental part:
Test Example 1: Evaluation of Minimum Inhibitory Concentration (MIC) of MEPM Against β-Lactamase Producing Bacteria
To evaluate the β-lactamase inhibitory activity of test compounds, the effect of combination of a test compound and a β-lactam agent against β-lactamase producing bacteria was evaluated. Meropenem (MEPM) was used as a β-lactam antimicrobial agent. The minimum inhibitory concentration (MIC) of MEPM against β-lactamase producing bacteria when a test compound was added at a fixed concentration (4 μg/mL) was measured by broth microdilution method (common ratio: 2). MIC of MEPM decreasing to less than 1/32 in combination with a test compound is indicated by A, decreasing from 1/32 to 1/16 is indicated by B, decreasing from ⅛ to ¼ is indicated by C, and decreasing to ½ or others are indicated by D. “-” represents untested cases.
On the technique in general: Broth dilution looks for growth in wells or tubes with falling amounts of substance.

Structures can show the parent of a compound that is named as a salt.

Consider `O=C(O)c1c(OC2CN(C(=O)Cc3cccnc3)C2)ccc2c1O[B-](O)(O)CC2` [Example 14, 4,4-dihydroxy-8-({1-[(pyridin-3-yl)acetyl]azetidin-3-yl}oxy)-5-oxa-4-boranuidabicyclo[4.4.0]deca-l(6),7,9-triene-7-carboxylic acid disodium salt], for which the “Decrease of MIC of MEPM in combination with a test compound, E. coli ATCC BAA-2340 (KPC)” value (“Decrease of MIC … E. coli ATCC BAA-2340 (KPC)” for short) is listed as “A (MIC of MEPM decreasing to less than 1/32 in combination with a test compound is indicated by A)”; the “Decrease of MIC of MEPM in combination with a test compound, K. pneumoniae ATCC BAA-2344 (KPC)” value (“Decrease … K. pneumoniae ATCC BAA-2344 (KPC)” below) is “A (MIC of MEPM decreasing to less than 1/32 in combination with a test compound is indicated by A)”; the “Decrease of MIC of MEPM in combination with a test compound, K. pneumoniae ATCC BAA-2524 (OXA-48)” value (“Decrease of MIC of MEPM … (OXA-48)” for short) is “B (decreasing from 1/32 to 1/16 is indicated by B)”.
Take `N[C@H](C(=O)N1CC(Oc2ccc3c(c2C(=O)O)O[B-](O)(O)CC3)C1)c1ccccc1` [Example 15, 8-({1-[(2S)-2-amino-2-phenylacetyl]azetidin-3-yl}oxy)-4,4-dihydroxy-5-oxa-4-boranuidabicyclo[4.4.0]deca-l(6),7,9-triene-7-carboxylic acid disodium salt]: the “Decrease of MIC … E. coli ATCC BAA-2340 (KPC)” value is on record as “A (MIC of MEPM decreasing to less than 1/32 in combination with a test compound is indicated by A)”; the “Decrease … K. pneumoniae ATCC BAA-2344 (KPC)” value was “A (MIC of MEPM decreasing to less than 1/32 in combination with a test compound is indicated by A)”; the “Decrease of MIC of MEPM … (OXA-48)” value is “B (decreasing from 1/32 to 1/16 is indicated by B)”.
Turning to `O=C(O)c1c(OC2CN(C(=O)Cc3ccncc3)C2)ccc2c1O[B-](O)(O)CC2` [Example 16, 4,4-dihydroxy-8-({1-[(pyridin-4-yl)acetyl]azetidin-3-yl}oxy)-5-oxa-4-boranuidabicyclo[4.4.0]deca-l(6),7,9-triene-7-carboxylic acid disodium salt], the “Decrease of MIC … E. coli ATCC BAA-2340 (KPC)” value is given as “A (MIC of MEPM decreasing to less than 1/32 in combination with a test compound is indicated by A)” and the “Decrease of MIC of MEPM … (OXA-48)” value is reported as “B (decreasing from 1/32 to 1/16 is indicated by B)”.
Take `O=C(O)c1c(OC2CN(C(=O)Cc3ccc(O)cc3)C2)ccc2c1O[B-](O)(O)CC2` [Example 17, 4,4-dihydroxy-8-({1-[(4-hydroxyphenyl)acetyl]azetidin-3-yl}oxy)-5-oxa-4-boranuidabicyclo[4.4.0]deca-l(6),7,9-triene-7-carboxylic acid disodium salt]: the “Decrease of MIC … E. coli ATCC BAA-2340 (KPC)” value was “A (MIC of MEPM decreasing to less than 1/32 in combination with a test compound is indicated by A)”; the “Decrease … K. pneumoniae ATCC BAA-2344 (KPC)” value is “B (decreasing from 1/32 to 1/16 is indicated by B)”; the “Decrease of MIC of MEPM … (OXA-48)” value was “B (decreasing from 1/32 to 1/16 is indicated by B)”.
In the case of `O=C(O)c1c(OC2CN(C(=O)Cn3cncn3)C2)ccc2c1O[B-](O)(O)CC2` [Example 18, 4,4-dihydroxy-8-({1-[(1H-1,2,4-triazol-1-yl)acetyl]azetidin-3-yl}oxy)-5-oxa-4-boranuidabicyclo[4.4.0]deca-l(6),7,9-triene-7-carboxylic acid disodium salt], the “Decrease of MIC … E. coli ATCC BAA-2340 (KPC)” value is “A (MIC of MEPM decreasing to less than 1/32 in combination with a test compound is indicated by A)”; the “Decrease … K. pneumoniae ATCC BAA-2344 (KPC)” value was “A (MIC of MEPM decreasing to less than 1/32 in combination with a test compound is indicated by A)”; the “Decrease of MIC of MEPM … (OXA-48)” value is on record as “B (decreasing from 1/32 to 1/16 is indicated by B)”.
As for `NC(C(=O)N1CC(Oc2ccc3c(c2C(=O)O)O[B-](O)(O)CC3)C1)c1cnc[nH]1` (stereo not shown) [Example 19, 8-({1-[amino(1H-imidazol-5-yl)acetyl]azetidin-3-yl}oxy)-4,4-dihydroxy-5-oxa-4-boranuidabicyclo[4.4.0]deca-l(6),7,9-triene-7-carboxylic acid disodium salt], the “Decrease of MIC … E. coli ATCC BAA-2340 (KPC)” value is recorded as “A (MIC of MEPM decreasing to less than 1/32 in combination with a test compound is indicated by A)”; the “Decrease … K. pneumoniae ATCC BAA-2344 (KPC)” value is recorded as “A (MIC of MEPM decreasing to less than 1/32 in combination with a test compound is indicated by A)”; the “Decrease of MIC of MEPM … (OXA-48)” value is “B (decreasing from 1/32 to 1/16 is indicated by B)”.
Consider `O=C(O)c1c(OC2CN(C(=O)Cc3ccccc3)C2)ccc2c1O[B-](O)(O)CC2` [Example 20, 4,4-dihydroxy-8-{[1-(phenylacetyl)azetidin-3-yl]oxy}-5-oxa-4-boranuidabicyclo[4.4.0]deca-l(6),7,9-triene-7-carboxylic acid disodium salt], for which the “Decrease of MIC … E. coli ATCC BAA-2340 (KPC)” value was “A (MIC of MEPM decreasing to less than 1/32 in combination with a test compound is indicated by A)”; the “Decrease … K. pneumoniae ATCC BAA-2344 (KPC)” value is “B (decreasing from 1/32 to 1/16 is indicated by B)”; the “Decrease of MIC of MEPM … (OXA-48)” value is “B (decreasing from 1/32 to 1/16 is indicated by B)”.
`O=C(O)c1c(OC2CN(C(=O)CCc3ccccc3)C2)ccc2c1O[B-](O)(O)CC2` [Example 21, 4,4-dihydroxy-8-{[1-(3-phenylpropanoyl)azetidin-3-yl]oxy}-5-oxa-4-boranuidabicyclo[4.4.0]deca-l(6),7,9-triene-7-carboxylic acid disodium salt]: the “Decrease of MIC … E. coli ATCC BAA-2340 (KPC)” value is listed as “A (MIC of MEPM decreasing to less than 1/32 in combination with a test compound is indicated by A)”; the “Decrease … K. pneumoniae ATCC BAA-2344 (KPC)” value was “B (decreasing from 1/32 to 1/16 is indicated by B)”; the “Decrease of MIC of MEPM … (OXA-48)” value is “C (decreasing from ⅛ to ¼ is indicated by C)”.
As to `O=C(O)c1c(OC2CN(C(=O)Cn3ccnc3)C2)ccc2c1O[B-](O)(O)CC2` [Example 22, 4,4-dihydroxy-8-({1-[(1H-imidazol-1-yl)acetyl]azetidin-3-yl}oxy)-5-oxa-4-boranuidabicyclo[4.4.0]deca-l(6),7,9-triene-7-carboxylic acid disodium salt], the “Decrease of MIC … E. coli ATCC BAA-2340 (KPC)” value is “A (MIC of MEPM decreasing to less than 1/32 in combination with a test compound is indicated by A)”; the “Decrease … K. pneumoniae ATCC BAA-2344 (KPC)” value is given as “A (MIC of MEPM decreasing to less than 1/32 in combination with a test compound is indicated by A)”; the “Decrease of MIC of MEPM … (OXA-48)” value is on record as “B (decreasing from 1/32 to 1/16 is indicated by B)”.
On to `O=C(O)c1c(OC2CN(C(=O)Cn3cnnn3)C2)ccc2c1O[B-](O)(O)CC2` [Example 23, 4,4-dihydroxy-8-({1-[(1H-tetrazol-1-yl)acetyl]azetidin-3-yl}oxy)-5-oxa-4-boranuidabicyclo[4.4.0]deca-l(6),7,9-triene-7-carboxylic acid disodium salt], for which the “Decrease … K. pneumoniae ATCC BAA-2344 (KPC)” value is “A (MIC of MEPM decreasing to less than 1/32 in combination with a test compound is indicated by A)” and the “Decrease of MIC of MEPM … (OXA-48)” value is “B (decreasing from 1/32 to 1/16 is indicated by B)”.
`O=C(O)c1c(OC2CN(C(=O)Cc3nn[nH]n3)C2)ccc2c1O[B-](O)(O)CC2` [Example 24, 4,4-dihydroxy-8-({1-[(2H-tetrazol-5-yl)acetyl]azetidin-3-yl}oxy)-5-oxa-4-boranuidabicyclo[4.4.0]deca-l(6),7,9-triene-7-carboxylic acid disodium salt]: the “Decrease of MIC … E. coli ATCC BAA-2340 (KPC)” value is on record as “A (MIC of MEPM decreasing to less than 1/32 in combination with a test compound is indicated by A)”; the “Decrease … K. pneumoniae ATCC BAA-2344 (KPC)” value was “A (MIC of MEPM decreasing to less than 1/32 in combination with a test compound is indicated by A)”; the “Decrease of MIC of MEPM … (OXA-48)” value is “B (decreasing from 1/32 to 1/16 is indicated by B)”.
For the compound `N[C@H](Cc1ccccc1)C(=O)N1CC(Oc2ccc3c(c2C(=O)O)O[B-](O)(O)CC3)C1` [Example 25, 4,4-dihydroxy-8-[(1-D-phenylalanylazetidin-3-yl)oxy]-5-oxa-4-boranuidabicyclo[4.4.0]deca-l(6),7,9-triene-7-carboxylic acid disodium salt], the “Decrease of MIC … E. coli ATCC BAA-2340 (KPC)” value is listed as “A (MIC of MEPM decreasing to less than 1/32 in combination with a test compound is indicated by A)”; the “Decrease … K. pneumoniae ATCC BAA-2344 (KPC)” value is on record as “A (MIC of MEPM decreasing to less than 1/32 in combination with a test compound is indicated by A)”; the “Decrease of MIC of MEPM … (OXA-48)” value is “B (decreasing from 1/32 to 1/16 is indicated by B)”.
For the compound `N[C@H](Cc1ccc(O)cc1)C(=O)N1CC(Oc2ccc3c(c2C(=O)O)O[B-](O)(O)CC3)C1` [Example 26, 4,4-dihydroxy-8-[(1-D-tyrosylazetidin-3-yl)oxy]-5-oxa-4-boranuidabicyclo[4.4.0]deca-l(6),7,9-triene-7-carboxylic acid disodium salt], the “Decrease of MIC … E. coli ATCC BAA-2340 (KPC)” value is given as “A (MIC of MEPM decreasing to less than 1/32 in combination with a test compound is indicated by A)”; the “Decrease … K. pneumoniae ATCC BAA-2344 (KPC)” value is recorded as “A (MIC of MEPM decreasing to less than 1/32 in combination with a test compound is indicated by A)”; the “Decrease of MIC of MEPM … (OXA-48)” value is listed as “A (MIC of MEPM decreasing to less than 1/32 in combination with a test compound is indicated by A)”.

(Values after US11066425B1, “Oxo-substituted compound” (SUMITOMO DAINIPPON PHARMA CO., LTD., priority 2018, dated 2021).)
